Measurements taken from patent US20120316161A1, “NOVEL ANTIVIRAL COMPOUNDS” (KATHOLIEKE UNIVERSITEIT LEUVEN, priority 2009, published 2012).
Where two headings read alike, the source gives them in different places.

What was measured:
[1] = target: T1, LEDGF-integrase interaction (His6-tagged HIV-1 integrase, flag-LEDGF/p75) (Human immunodeficiency virus type 1 group M subtype B, UniProt P04585); assay: AlphaScreen assay of LEDGF-integrase interaction inhibition; type: binding; conditions: compound at 100 μM
T1 construct: His6-tagged HIV-1 integrase; made in house
Method: The AlphaScreen assay was performed according to the manufacturer's protocol (Perkin Elmer, Benelux). Reactions were performed in 25 μl final volume in 384-well Optiwell™ microtiter plates (Perkin Elmer). The reaction buffer contained 25 mM Tris-HCl (pH 7.4), 150 mM NaCl, 1 mM MgCl2, 0.01% (v/v) Tween-20 and 0.1% (w/v) bovine serum albumin. His6-tagged integrase (300 nM final concentration) was incubated with the compounds for 30 min at 4° C. The compounds were added at varying concentrations spanning a wide range from 0.1 up to 100 μM. Afterwards 100 nM flag-LEDGF/p75 was added and incubation was prolonged for an additional hour at 4° C. Subsequently 5 μl of Ni-chelate—coated acceptor beads and 5 μl anti-flag donor beads were added to a final concentration of 20 μg/ml of both beads. Proteins and beads were incubated for 1 h at 30° C. in order to allow association to occur. Exposure of the reaction to direct light was omitted as much as possible and the emission of light from the acceptor beads was measured in the EnVision plate reader (Perkin Elmer, Benelux) and analyzed using the EnVision manager software. IN/DNA binding was analyzed in a similar setting using His6-tagged integrase (1 μM final concentration) and an oligodeoxynucleotide mimicking the IN ELISA oligonucleotide substrate (30 nM final concentration). Counterscreens with JPO2 or PogZ, respectively, were essentially performed as described previously. Expression and purification of recombinant proteins: His6-tagged HIV-1 integrase, 3xflag-tagged LEDGF/p75, MBP-JPO2 and MBP-PogZ were purified for AlphaScreen applications as described previously.

[2] = tested on: HIV; assay: microbe, parasite or virus in culture; type: cell-based; conditions: Human immunodeficiency virus 1, MT4
Method: (§1) A rapid and automated assay procedure was used for the in vitro evaluation of anti-HIV agents. An HTLV-1 transformed T4-cell line MT-4, which was previously shown to be highly susceptible to and permissive for HIV infection, served as the target cell line. Inhibition of the HIV-induced cytopathogenic effect was used as the end point. The viability of both HIV-and mock-infected cells was assessed spectrophotometrically via in situ reduction of 3-(4,5-dimethylthiazol-2-yl)-2,5-diphenyltetrazolium bromide (MTT). The 50% cytotoxic concentration (CC50 in μg/ml) was defined as the concentration of compound that reduced the absorbance of the mock-infected control sample by 50%. The percent protection achieved by the compound in HIV-infected cells was calculated by the following formula: […]
whereby (ODT)HIV is the optical density measured with a given concentration of the test compound in HIV-infected cells; (ODC)HIV is the optical density measured for the control untreated HIV-infected cells; (ODC)MOCK is the optical density measured for the control untreated mock-infected cells; all optical density values were determined at 540 nm. The dose achieving 50% protection according to the above formula was defined as the 50% inhibitory concentration (EC50 in μg/ml or μM). The ratio of CC50 to EC50 was defined as the selectivity index (SI). […] Examples of inhibition of cell proliferation by particular compounds of the invention can be found by looking at the respective CC50 values in the MT-4 cell line. Cells: MT-4 cells (Miyoshi et al., 1982) were grown and maintained in RPMI 1640medium supplemented with 10% heat-inactivated fetal calf serum, 2 mM 1-glutamine, 0.1% sodium bicarbonate, and 20æg of gentamicin per ml.
Viruses: The HIV-1 (NL4.3) strain (Adachi et al., 1986) is a molecular clone obtained from the National Institutes of Health (Bethesda, Md.). The HIV-2 (ROD) (Barr, -Sinoussi et al., 1983) stock was obtained from culture supernatant of HIV-2 infected cell lines.

[3] = Cytotoxicity in mock-infected MT-4 cells (MTT); type: cell-based; conditions: human, mock-infected MT-4 cells
Method: as §1, with “The 50% cytotoxic concentration (CC50 in μg/ml) was defined as the concentration of compound that reduced the absorbance of the mock-infected control sample by 50%.” left out
whereby (ODT)HIV is the optical density measured with a given concentration of the test compound in HIV-infected cells; (ODC)HIV is the optical density measured for the control untreated HIV-infected cells; (ODC)MOCK is the optical density measured for the control untreated mock-infected cells; all optical density values were determined at 540 nm. […] The ratio of CC50 to EC50 was defined as the selectivity index (SI).

[4] = 50% protection of HIV-infected MT-4 cells, read-out: EC50

CCCC(C(=O)O)c1c(C)nc2ccnn2c1-c1ccc(C)cc1 (centres unmarked) [CPD-57, 2-(5-methyl-7-p-tolylpyrazolo[1,5-a]pyrimidin-6-yl)pentanoic acid]
Alpha screen % (100 μM) [1]: 84% | EC50 [2, 4]: 192 µM | CC50 [3]: > 250 µM

CCCC(C(=O)O)c1c(C)nc2cc(C(C)(C)C)nn2c1-c1ccccc1 (centres unmarked) [CPD-58, 2-(2-tert-butyl-5-methyl-7-phenylpyrazolo[1,5-a]pyrimidin-6-yl)pentanoic acid]
Alpha screen % (100 μM) [1]: 77% | EC50 [2, 4]: 27.3 µM | CC50 [3]: 121 µM

CCCC(C(=O)O)c1c(C)nc2cc(C(C)(C)C)nn2c1-c1ccc(C)cc1 (centres unmarked) [CPD-59, 2-(2-tert-butyl-5-methyl-7-p-tolylpyrazolo[1,5-a]pyrimidin-6-yl)pentanoic acid]
Alpha screen % (100 μM) [1]: 92% | EC50 [2, 4]: 14.3 µM | CC50 [3]: > 250 µM

CCCC(C(=O)O)c1c(C)nc2c(Br)c(C(C)(C)C)nn2c1-c1ccc(C)cc1 (centres unmarked) [CPD-60, 2-(3-bromo-2-tert-butyl-5-methyl-7-p-tolylpyrazolo[1,5-a]pyrimidin-6-yl)pentanoic acid]
Alpha screen % (100 μM) [1]: 92% | EC50 [2, 4]: 2.39 µM | CC50 [3]: 56.3 µM

CCCC(C(=O)O)c1c(C)nc2cc(-c3ccccc3)nn2c1-c1ccc(C)cc1 (centres unmarked) [CPD-61, 2-(5-methyl-2-phenyl-7-p-tolylpyrazolo[1,5-a]pyrimidin-6-yl)pentanoic acid]
Alpha screen % (100 μM) [1]: 94% | EC50 [2, 4]: 30.2 µM | CC50 [3]: 104 µM

CCCC(C(=O)O)c1c(C)nc2cc(C(C)(C)C)nn2c1-c1ccc2cc[nH]c2c1 (centres unmarked) [CPD-65, 2-(2-tert-butyl-7-(1H-indol-6-yl)-5-methylpyrazolo[1,5-a]pyrimidin-6-yl)pentanoic acid]
Alpha screen % (100 μM) [1]: 30% | EC50 [2]: 5.69 µM | CC50 [3]: 46.5 µM

CCCC(C(=O)O)c1c(C)nc2cc(C(C)(C)C)nn2c1-c1ccc2occc2c1 (centres unmarked) [CPD-66, 2-(7-(benzofuran-5-yl)-2-tert-butyl-5-methylpyrazolo[1,5-a]pyrimidin-6-yl)pentanoic acid]
Alpha screen % (100 μM) [1]: 92% | EC50 [2, 4]: 10.5 µM | CC50 [3]: 99 µM

CCCC(C(=O)O)c1c(C)nc2cc(C(C)(C)C)nn2c1-c1ccc2sccc2c1 (centres unmarked) [CPD-67, 2-(7-(benzo[b]thiophen-5-yl)-2-tert-butyl-5-methylpyrazolo[1,5-a]pyrimidin-6-yl)pentanoic acid]
Alpha screen % (100 μM) [1]: 93% | EC50 [2, 4]: 2.94 µM | CC50 [3]: 70 µM

CCCC(C(=O)O)c1c(C)nc2cc(C(C)(C)C)nn2c1-c1ccc2c(c1)CCO2 (centres unmarked) [CPD-68, 2-(2-tert-butyl-7-(2,3-dihydrobenzofuran-5-yl)-5-methylpyrazolo[1,5-a]pyrimidin-6-yl)pentanoic acid]
Alpha screen % (100 μM) [1]: 93% | EC50 [2, 4]: 6.42 µM | CC50 [3]: 101 µM

CCCC(C(=O)O)c1c(C)nc2cc(C(C)(C)C)nn2c1-c1ccc(Cl)cc1 (centres unmarked) [CPD-69, 2-(2-tert-butyl-7-(4-chlorophenyl)-5-methylpyrazolo[1,5-a]pyrimidin-6-yl)pentanoic acid]
Alpha screen % (100 μM) [1]: 93% | EC50 [2]: 1.61 µM | CC50 [3]: 40.3 µM

CCCC(C(=O)O)c1c(C)nc2cc(C(C)(C)C)nn2c1-c1ccc(C)c(C)c1 (centres unmarked) [CPD-70, 2-(2-tert-butyl-7-(3,4-dimethylphenyl)-5-methylpyrazolo[1,5-a]pyrimidin-6-yl)pentanoic acid]
Alpha screen % (100 μM) [1]: 93% | EC50 [2, 4]: 72.1 µM | CC50 [3]: > 125 µM

CCCC(C(=O)O)c1c(C)nc2cc(C(C)(C)C)nn2c1-c1ccc(CC)cc1 (centres unmarked) [CPD-71, 2-(2-tert-butyl-7-(4-ethylphenyl)-5-methylpyrazolo[1,5-a]pyrimidin-6-yl)pentanoic acid]
Alpha screen % (100 μM) [1]: 74% | EC50 [2, 4]: 2.8 µM | CC50 [3]: 73 µM

CCCC(C(=O)O)c1c(C)nc2cc(C(C)(C)C)nn2c1-c1ccc2c(c1)OCCCO2 (centres unmarked) [CPD-72, 2-(2-tert-butyl-7-(3,4-dihydro-2H-benzo[b][1,4]dioxepin-7-yl)-5-methylpyrazolo[1,5-a]pyrimidin-6-yl)pentanoic acid]
Alpha screen % (100 μM) [1]: 93% | EC50 [2, 4]: 22.6 µM | CC50 [3]: > 125 µM

CCCc1cc2nc(C)c(C(CCC)C(=O)O)c(-c3ccc(C)cc3)n2n1 (centres unmarked) [CPD-77, 2-(5-methyl-2-propyl-7-p-tolylpyrazolo[1,5-a]pyrimidin-6-yl)pentanoic acid]
Alpha screen % (100 μM) [1]: 83% | EC50 [2, 4]: 28.1 µM | CC50 [3]: 203 µM

CCCC(C(=O)O)c1c(C)nc2cc(-c3ccco3)nn2c1-c1ccc(C)cc1 (centres unmarked) [CPD-78, 2-(2-(furan-2-yl)-5-methyl-7-p-tolylpyrazolo[1,5-a]pyrimidin-6-yl)pentanoic acid]
Alpha screen % (100 μM) [1]: 83% | EC50 [2, 4]: 21.2 µM | CC50 [3]: 127 µM

CCCC(C(=O)O)c1c(C)nc2cc(C(C)(C)C)nn2c1-c1ccc(Cl)cc1F (centres unmarked) [CPD-79, 2-(2-tert-butyl-7-(4-chloro-2-fluorophenyl)-5-methylpyrazolo[1,5-a]pyrimidin-6-yl)pentanoic acid]
Alpha screen % (100 μM) [1]: 75% | EC50 [2, 4]: 1.89 µM | CC50 [3]: 76 µM

CCCC(C(=O)O)c1c(C)nc2cc(C(C)(C)C)nn2c1-c1ccc(C)cc1F (centres unmarked) [CPD-80, 2-(2-tert-butyl-7-(2-fluoro-4-methylphenyl)-5-methylpyrazolo[1,5-a]pyrimidin-6-yl)pentanoic acid]
Alpha screen % (100 μM) [1]: 75% | EC50 [2, 4]: 4.08 µM | CC50 [3]: 192 µM

Cc1ccc(-c2c(C(CCCC(F)(F)F)C(=O)O)c(C)nc3cc(C(C)(C)C)nn23)cc1 (centres unmarked) [CPD-81, 2-(2-tert-butyl-7-p-tolyl-5-methylpyrazolo[1,5-a]pyrimidin-6-yl)-6,6,6-trifluorohexanoic acid]
Alpha screen % (100 μM) [1]: 65% | EC50 [2, 4]: 16.4 µM | CC50 [3]: 56 µM

CCCC(C(=O)O)c1c(C)nc2cc(C(C)(C)C)nn2c1-c1ccc2c(c1)CCCO2 (centres unmarked) [CPD-85]
Alpha screen % (100 μM) [1]: 76% | EC50 [2, 4]: 2.54 µM | CC50 [3]: 125 µM

CCC(C)C(C(=O)O)c1c(C)nc2cc(C(C)(C)C)nn2c1-c1ccc(C)cc1 (centres unmarked) [CPD-86, 2-(2-tert-butyl-7-p-tolyl-5-methylpyrazolo[1,5-a]pyrimidin-6-yl)-3-methylpentanoic acid]
CC50 [3]: 77 µM

CCCC(C(=O)O)c1c(C)nc2c(Cl)c(C(C)(C)C)nn2c1-c1ccc(C)cc1 (centres unmarked) [CPD-87, 2-(2-tert-butyl-3-chloro-7-p-tolyl-5-methylpyrazolo[1,5-a]pyrimidin-6-yl)pentanoic acid]
Alpha screen % (100 μM) [1]: 67% | EC50 [2, 4]: 2.33 µM | CC50 [3]: 38.3 µM

CCCC(C(=O)O)c1c(C)nc2c(nc(C)n2C)c1-c1ccc(C)cc1 (centres unmarked) [CPD-105, 2-(2,3,5-Trimethyl-7-p-tolyl-3H-imidazo[4,5-b]pyridin-6-yl)pentanoic acid]
EC50 [2, 4]: 23.2 µM | CC50 [3]: 235 µM

CCCC(C(=O)O)c1c(C)nc2nc(C(C)C)nn2c1-c1ccc(C)cc1 (centres unmarked) [CPD-121, 2-(2-isopropyl-5-methyl-7-p-tolyl-[1,2,4]-triazolo[1,5-a]pyrimidin-6-yl)pentanoic acid]
EC50 [2, 4]: 124 µM | CC50 [3]: > 250 µM
